Results taken from patent US8859541B2, “6-alkynylpyridines” (Boehringer Ingelheim International GmbH, priority 2012, dated 2014).

What was measured:
XIAP BIR3 = biological target: T1, XIAP BIR3 (Homo sapiens, UniProt P98170); experiment: XIAP BIR3 binding assay (DELFIA), displacement of SMAC peptide; details: GST-fusion BIR3 domain (aa 241 to 356) 10 nM, SMAC peptide 10 nM; activity of the (S)-isomers
T1 construct: covering amino acids 241 to 356; XIAP BIR3; made in house; host or cells: E. coli
T1 sequence (P98170 241-356): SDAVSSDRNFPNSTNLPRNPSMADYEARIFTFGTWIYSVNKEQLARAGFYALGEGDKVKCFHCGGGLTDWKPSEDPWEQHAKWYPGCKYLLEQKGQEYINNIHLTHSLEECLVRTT
In short: (§1)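 Each BIR3 domain (10 nM) incubated with biotinylated N-terminal SMAC peptide (10 nM) and compound for 1 h at room temp in Tris/NaCl buffer with BSA, DTT and Triton X-100. Captured on streptavidin plates; bound BIR3 detected by Eu-labelled anti-GST time-resolved fluorescence, giving IC50 values.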

cIAP1 BIR3 = biological target: T2, cIAP1 BIR3 (Homo sapiens, UniProt Q13490); experiment: cIAP1 BIR3 binding assay (DELFIA), displacement of SMAC peptide; details: GST-fusion BIR3 domain (aa 256 to 363) 10 nM, SMAC peptide 10 nM; activity of the (S)-isomers
T2 construct: covering amino acids 256 to 363; cIAP1 BIR3; made in house; host or cells: E. coli
T2 sequence (Q13490 256-363): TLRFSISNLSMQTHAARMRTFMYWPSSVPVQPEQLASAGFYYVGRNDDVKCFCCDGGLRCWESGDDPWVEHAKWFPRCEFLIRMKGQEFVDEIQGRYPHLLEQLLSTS
In short: as §1

Structure (SMILES) | IC50 (XIAP BIR3) [nM] | IC50 (cIAP1 BIR3) [nM]
CNC(C)C(=O)Nc1ccc(-c2cccc(NC(C)=O)c2)c(C#Cc2ccccc2)n1 (stereo not drawn) [Example 118, N-[5-(3-acetamidophenyl)-6-(2-phenylethynyl)pyridin-2-yl]-2-(methylamino)propanamide] | 287 | 92
CNC(C)C(=O)Nc1ccc(-c2cncc(Cl)c2)c(C#Cc2ccccc2)n1 (stereo not drawn) [Example 122, N-[5-(5-chloropyridin-3-yl)-6-(2-phenylethynyl)pyridin-2-yl]-2-(methylamino)propanamide] | 148 | 23
CCOc1ccc(-c2ccc(NC(=O)C(C)NC)nc2C#Cc2ccccc2)cn1 (stereo not drawn) [Example 125, N-[5-(6-ethoxypyridin-3-yl)-6-(2-phenylethynyl)pyridin-2-yl]-2-(methylamino)propanamide] | 580 | 131
CNC(C)C(=O)Nc1ccc(-c2ccc(OC)nc2OC)c(C#Cc2ccccc2)n1 (stereo not drawn) [Example 126, N-[5-(2,6-dimethoxypyridin-3-yl)-6-(2-phenylethynyl)pyridin-2-yl]-2-(methylamino)propanamide] | 1010 | 166
CNC(C)C(=O)Nc1ccc(-c2cncc(C)c2)c(C#Cc2ccccc2)n1 (stereo not drawn) [Example 127, 2-(methylamino)-N-[5-(5-methylpyridin-3-yl)-6-(2-phenyl-ethynyl)pyridin-2-yl]propanamide] | 128 | 21
CNC(C)C(=O)Nc1ccc(-c2ccc(N3CCCC3)nc2)c(C#Cc2ccccc2)n1 (stereo not drawn) [Example 129, 2-(methylamino)-N-[6-(2-phenyl-ethynyl)-5-(6-pyrrolidin-1-ylpyridin-3-yl)pyridin-2-yl]-propanamide] | 436 | 98
CNC(C)C(=O)Nc1ccc(-c2cccc3ccccc23)c(C#Cc2ccccc2)n1 (stereo not drawn) [Example 130, 2-(methylamino)-N-[5-naphthalen-1-yl-6-(2-phenyl-ethynyl)pyridin-2-yl]propanamide] | 3200 | 172
CNC(C)C(=O)Nc1ccc(-c2cc(F)cc(C(=O)OC)c2)c(C#Cc2ccccc2)n1 (stereo not drawn) [Example 132, methyl 3-fluoro-5-[6-[[2-(methyl-amino)propanoyl]amino]-2-(2-phenylethynyl)pyridin-3-yl]-benzoate] | 326 | 97
CNC(C)C(=O)Nc1ccc(-c2cscc2C#N)c(C#Cc2ccccc2)n1 (stereo not drawn) [Example 145, N-[5-(4-cyanothiophen-3-yl)-6-(2-phenylethynyl)pyridin-2-yl]-2-(methylamino)propanamide] | 317 | 94
CNC(C)C(=O)Nc1ccc(-c2cncc(-c3ccccc3)c2)c(C#Cc2ccccc2)n1 (stereo not drawn) [Example 149, 2-(methylamino)-N-[6-(2-phenyl-ethynyl)-5-(5-phenylpyridin-3-yl)pyridin-2-yl]propanamide] | 195 | 80
[2H]C([2H])([2H])NC(C)C(=O)Nc1ccc(-c2c(C)noc2C)c(C#Cc2ccccc2)n1 (stereo not drawn) [Example 168, N-[5-(3,5-dimethyl-1,2-oxazol-4-yl)-6-(2-phenylethynyl)pyridin-2-yl]-2-(trideuteriomethylamino)propanamide] | 151 | 3
CNC(C)C(=O)Nc1ccc(-c2ccc3c(c2)C(=O)c2ccccc2-3)c(C#Cc2ccccc2)n1 (stereo not drawn) [Example 177, 2-(methylamino)-N-[5-(9-oxofluoren-2-yl)-6-(2-phenyl-ethynyl)pyridin-2-yl]propanamide] | 337 | 92
CNC(=O)c1ccc(-c2ccc(NC(=O)C(C)NC)nc2C#Cc2ccccc2)cn1 (stereo not drawn) [Example 182, N-methyl-5-[6-[[2-(methyl-amino)propanoyl]amino]-2-(2-phenylethynyl)pyridin-3-yl]-pyridine-2-carboxamide] | 135 | 36
CNC(C)C(=O)Nc1ccc(-c2nnc(Cl)c3ccccc23)c(C#Cc2ccccc2)n1 (stereo not drawn) [Example 184, N-[5-(4-chlorophthalazin-1-yl)-6-(2-phenylethynyl)pyridin-2-yl]-2-(methylamino)propanamide] | 138 | 17
CNC(C)C(=O)Nc1ccc(-c2sc(C)nc2C)c(C#Cc2ccccc2)n1 (stereo not drawn) [Example 186, N-[5-(2,4-dimethyl-1,3-thiazol-5-yl)-6-(2-phenylethynyl)pyridin-2-yl]-2-(methylamino)propanamide] | 151 | 16
CNC(C)C(=O)Nc1ccc(-c2c(C)ncn2C)c(C#Cc2ccccc2)n1 (stereo not drawn) [Example 195, N-[5-(3,5-dimethylimidazol-4-yl)-6-(2-phenylethynyl)pyridin-2-yl]-2-(methylamino)propanamide] | 269 | 4
CNC(C)C(=O)Nc1cc(C(F)(F)F)cc(C#Cc2ccccc2)n1 (stereo not drawn) [Example 198, 2-(methylamino)-N-[6-(2-phenylethynyl)-4-(trifluoromethyl)pyridin-2-yl]propanamide] | 10500 | 4930
CC(N)C(=O)Nc1cc2ccccc2c(C#Cc2ccsc2)n1 (stereo not drawn) [Example 203, 2-amino-N-[1-(2-thiophen-3-ylethynyl)isoquinolin-3-yl]propanamide] | 760 | 251

Continued by falling IC50 (XIAP BIR3), values first:

IC50 (XIAP BIR3) [nM] | IC50 (cIAP1 BIR3) [nM] | Structure (SMILES)
125 | 32 | CNC(C)C(=O)Nc1ccc(-c2ccc(C)nc2)c(C#Cc2ccccc2)n1 (stereo not drawn) [Example 147, 2-(methylamino)-N-[5-(6-methylpyridin-3-yl)-6-(2-phenyl-ethynyl)pyridin-2-yl]propanamide]
121 | 25 | CNC(C)C(=O)Nc1ccc(-c2cncc(C#N)c2)c(C#Cc2ccccc2)n1 (stereo not drawn) [Example 123, N-[5-(5-cyanopyridin-3-yl)-6-(2-phenylethynyl)pyridin-2-yl]-2-(methylamino)propanamide]
103 | 16 | CNC(C)C(=O)Nc1ccc(-c2ccc3c(c2)C(=O)NC3=O)c(C#Cc2ccccc2)n1 (stereo not drawn) [Example 175, N-[5-(1,3-dioxoisoindol-5-yl)-6-(2-phenylethynyl)pyridin-2-yl]-2-(methylamino)propanamide]
102 | 22 | CNC(C)C(=O)Nc1ccc(-c2cnc(N3CCOCC3)nc2)c(C#Cc2ccccc2)n1 (stereo not drawn) [Example 161, 2-(methylamino)-N-[5-(2-morpholin-4-ylpyrimidin-5-yl)-6-(2-phenylethynyl)pyridin-2-yl]-propanamide]
102 | 22 | CNC(C)C(=O)Nc1ccc(-c2cnc(N3CCN(C)CC3)nc2)c(C#Cc2ccccc2)n1 (stereo not drawn) [Example 191, 2-(methylamino)-N-[5-[2-(4-methylpiperazin-1-yl)pyrimidin-5-yl]-6-(2-phenylethynyl)pyridin-2-yl]propanamide]
102 | 23 | CNC(C)C(=O)Nc1ccc(-c2cnc(C(=O)OC)nc2)c(C#Cc2ccccc2)n1 (stereo not drawn) [Example 194, methyl 5-[6-[[2-(methylamino)-propanoyl]amino]-2-(2-phenyl-ethynyl)pyridin-3-yl]pyrimidine-2-carboxylate]
97 | 31 | CNC(C)C(=O)Nc1ccc(-c2cncc(OC)c2)c(C#Cc2ccccc2)n1 (stereo not drawn) [Example 121, N-[5-(5-methoxypyridin-3-yl)-6-(2-phenylethynyl)pyridin-2-yl]-2-(methylamino)propanamide]
87 | 30 | CNC(C)C(=O)Nc1ccc(-c2cnn(C)c2C)c(C#Cc2ccccc2)n1 (stereo not drawn) [Example 189, N-[5-(1,5-dimethylpyrazol-4-yl)-6-(2-phenylethynyl)pyridin-2-yl]-2-(methylamino)propanamide]
76 | 22 | CNC(C)C(=O)Nc1ccc(-c2cnc(-n3ccnc3)nc2)c(C#Cc2ccccc2)n1 (stereo not drawn) [Example 192, N-[5-(2-imidazol-1-ylpyrimidin-5-yl)-6-(2-phenylethynyl)pyridin-2-yl]-2-(methylamino)propan-amide]
67 | 1 | Cc1noc(C)c1-c1ccc(NC(=O)C(C)N)nc1C#Cc1ccccc1 (stereo not drawn) [Example 165, 2-amino-N-[5-(3,5-dimethyl-1,2-oxazol-4-yl)-6-(2-phenylethynyl)-pyridin-2-yl]propanamide]
55 | 12 | CNC(C)C(=O)Nc1ccc(-c2cnn3ccccc23)c(C#Cc2ccccc2)n1 (stereo not drawn) [Example 138, 2-(methylamino)-N-[6-(2-phenyl-ethynyl)-5-pyrazolo[1,5-a]-pyridin-3-ylpyridin-2-yl]propan-amide]
51 | 1 | CNC(C)C(=O)Nc1ccc(-c2c(C)nc3ccccn23)c(C#Cc2ccccc2)n1 (stereo not drawn) [Example 174, 2-(methylamino)-N-[5-(2-methyl-imidazo[1,2-a]pyridin-3-yl)-6-(2-phenylethynyl)pyridin-2-yl]-propanamide]
50 | 23 | CNC(C)C(=O)Nc1ccc(-c2cc(C(=O)OC)cc(C(=O)OC)c2)c(C#Cc2ccccc2)n1 (stereo not drawn) [Example 176, dimethyl 5-[6-[[2-(methylamino)-propanoyl]amino]-2-(2-phenyl-ethynyl)pyridin-3-yl]benzene-1,3-dicarboxylate]
49 | 9 | CNC(C)C(=O)Nc1ccc(-c2ccc3ncn(C)c(=O)c3c2)c(C#Cc2ccccc2)n1 (stereo not drawn) [Example 187, 2-(methylamino)-N-[5-(3-methyl-4-oxoquinazolin-6-yl)-6-(2-phenylethynyl)pyridin-2-yl]-propanamide]
16 | 1 | CNC(C)C(=O)Nc1ccc(-c2c(-c3ccncc3)nc3cc(C)ccn23)c(C#Cc2ccccc2)n1 (stereo not drawn) [Example 185, 2-(methylamino)-N-[5-(7-methyl-2-pyridin-4-ylimidazo[1,2-a]-pyridin-3-yl)-6-(2-phenyl-ethynyl)pyridin-2-yl]propanamide]
